Assay results from paper PMC11851430, “Workflow for E3 Ligase Ligand Validation for PROTAC Development” (ACS Chemical Biology, 2025).

Legend:
[1] = tested on: kinase protein levels in MCF-7 cells; experiment: TMT-labeled quantitative proteomics; assay type: cell-based, human; details: for log2FC (compound/DMSO): MCF7, 1 µM, set1.1
Description: (§1) 50 µl of SDS Lysis Buffer (2% SDS, 50 mM TRIS pH 8.5, 10 mM TCEP, 40 mM CAA) was added to each sample. Cells were transferred into low binding reaction tubes (Eppendorf:
(§2) Methanol/Chloroform Precipitation. 200 µl of methanol and 50 µl of chloroform were added to each sample reaction tube and mixed via vortex. 150 µl of milliQ-H2O were added and samples were vortexed further. Samples were centrifuged for 5 minutes at 15000 g and the aqueous layer above the interphase was removed. 150 µl of methanol was added, samples were vortexed and centrifuged for 10 minutes at 15000 g to precipitate the pellet. The aforementioned wash procedure was repeated twice before transferring the pellet to a new low bind reaction tube in which it was allowed to dry for 5 minutes.
(§3) Dissolving the Protein Pellet and Protein Quantification. 50 µl of digestion buffer (8 M Urea, 50 mM TRIS pH 8) was added to each sample before vortexing and shaking at 750 rpm at room temperature for 10 minutes to solubilize the pellet. Protein quantification via PierceTM […]
(§4) Protein Digestion. Samples were diluted 1:2 with 50 mM TRIS pH 8.5 to reach a final concentration of 4 M Urea. Lys-C (Promega: VA1170) was added at a 1:100 enzyme/substrate ratio. Samples were agitated at 550 rpm and 37 °C for 3 h. Samples were further diluted with 50 mM TRIS pH 8.5 to a final concentration of 1 M Urea and Trypsin (Promega: V5280) was added at a 1:100 enzyme/substrate ratio. Samples were agitated overnight at 550 rpm and 37 °C. The digestion was stopped the following day via addition of TFA to a final concentration […]
(§5) Solid Phase Extraction via C18 Cartridges. Sep-Pak C18 Cartridges (Waters: WAT054955) were used for solid phase extraction of digested peptides. For preconditioning of C18 cartridges, 1 mL of methanol was added to each column followed by 1 mL of solution B (0.1% formic acid, 80% acetonitrile) and 1 mL of solution A (0.1% formic acid, ddH2O) twice. Samples […]
(§6) were loaded to their respective columns and once samples had passed, columns were washed twice with solution A to remove unwanted components from the loading step. Elution of samples was carried out via introduction of 40% and 60% acetonitrile steps. Samples were dried and snap frozen in liquid nitrogen.
(§7) TMT-Labeling. Desalted peptides were dried and resuspended in TMT-labeling buffer (200 mM EPPS pH 8.2, 20% acetonitrile). 10 μg of peptides per condition were subjected to TMT labeling with 1:2.5 peptide TMT ratio (w/w) for 1 h at room temperature. The labeling reaction was quenched by addition of hydroxylamine to a final concentration of 0.5% and incubation at room temperature for 15 minutes. Successful TMT labeling was verified by mixing equimolar ratios of peptides and subjecting the mix to single shot LC-MS/MS analysis. For high pH reversed phase fractionation on a Dionex analytical HPLC, 50 µg of pooled and purified TMT labelled samples were resuspended in 10 mM ammonium-bicarbonate (ABC), 5% acetonitrile, and separated on a 250 mm long C18 column (Aeris Peptide XB-C18, 4.6 mm ID, 2.6 µm particle size; Phenomenex) using a multistep gradient from 100% solvent A (5% acetonitrile, 10 mM ABC in water) to 60% solvent B (90% acetonitrile, 10 mM ABC in water) over 70 minutes. Eluting peptides were collected every 45 seconds into a total of 96 fractions, which were cross-concatenated into 24 fractions and dried in a vacuum concentrator and resuspended in 3% acetonitrile with 0.1% TFA for LC-MS analysis.
(§8) Mass spectrometry data acquisition. Tryptic peptides were analyzed on an Orbitrap Lumos coupled to an easy nLC 1200 (ThermoFisher Scientific) using a 35 cm long, 75 µm ID fused-silica column packed in house with 1.9 µm C18 particles (Reprosil pur, Dr. Maisch), and kept at 50 °C using an integrated column oven (Sonation). HPLC solvents consisted of 0.1% formic acid in water (buffer A) and 0.1% formic acid and 80% acetonitrile in water (buffer B). Assuming

[2] = target: T1, kinase protein levels in MCF-7 cells (Homo sapiens, UniProt A0A0B4J2F0); experiment: TMT-labeled quantitative proteomics; assay type: cell-based; details: protein PIGBOS1; MCF7; 1 µM; set1.1
T1 construct: endogenous in cells; host or cells: MCF-7
T1 sequence (A0A0B4J2F0 1-54): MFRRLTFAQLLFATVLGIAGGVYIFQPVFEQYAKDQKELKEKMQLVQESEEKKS
Description: as §1, §2, §3, §4, §5, §6, §7, §8

[3] = target: VHL (Homo sapiens, UniProt P40337); experiment: NanoBRET target engagement assay; details: permeabilized cells
Description: Compounds were pipetted at various concentrations using an Echo acoustic dispenser (Labcyte), immediately followed by Tracer K10 (Promega, Tracer DB ID: T000008) for AAK1 and Aurora A and VHL Tracer (Promega, Tracer DB ID: T000019) for VHL, at an optimum KD concentration chosen from TracerDB ( tracerdb.org), respectively.
To measure the BRET signal, the NanoBRET® NanoGlo Substrate (Promega:
N1573) was added as per the manufacturer’s protocol, and filtered luminescence was measured on a PHERAstar plate reader (BMG Labtech) equipped with a luminescence filter pair (450 nm BP filter (donor) and 610 nm LP filter (acceptor)). For NanoBRET® measurement in permeabilized cells, 25 nL of digitonin (0.05 μg/μL) was pipetted into each well using an
After incubation, the BRET signals were measured by a PHERAstar plate reader (BMG Labtech) following the same procedure as intact NanoBRET® measurement. Competitive displacement data were then normalized to controls and were plotted using GraphPad Prism 9 software employing a normalized 3-parameter curve fit with the following equation:

[4] = tested on: Jurkat cells; experiment: CellTiterGlo cell viability assay; assay type: cell-based, human; details: Homo sapiens, 24 h, mean of triplicates, ^b/^c values estimated, read-out: IC50±sd/μM (cell viability)
Description: The effects of the compounds on cell viability was determined using the CellTiter-Glo® 2.0 Cell Viability Assay (Promega: G9241) following manufacturer’s protocol. Ten µL of Jurkat cells at […]
After equilibration, PROTACs were titrated at various concentrations using an Echo acoustic […]
volume of CellTiter-Glo® 2.0 reagent (10 µL) was added to each well and cells were incubated for 10 minutes at room temperature. Filtered luminescence was measured on a PHERAstar plate reader (BMG Labtech) and data was evaluated using GraphPad Prism 9 software employing a normalized curve it with the following equation: Y=Bottom + (Top-Bottom)/(1+10(LogEC50-X) *HillSlope).
Sample preparation. Jurkat cells (ATCC © HTB-22) were cultured in RPMI (Thermo: […]

[5] = tested on: kinase protein levels in Jurkat cells; experiment: TMT-labeled quantitative proteomics; assay type: cell-based, human; details: Jurkat, 1 µM, set1.2
Description: cultured in RPMI (Thermo: 11875093) supplemented as mentioned above. Cells were seeded in 6 well plates (Greiner: 657160) at a cell density of 1·10 6 cells/well and left at 37 °C and 5% […]
as §1
0030108116) and samples were boiled for 15 minutes at 95 °C and sonicated for 2 minutes.
as §2
Dissolving the Protein Pellet and Protein Quantification. 50 µl of digestion buffer (8 M Urea, 50 mM TRIS pH 8) was added to each sample before vortexing and shaking at 750 rpm at room temperature for 10 minutes to solubilize the pellet. Protein quantification via PierceTM BCA Protein Assay Kit (Thermo: 23225) was carried out according to manufacturer’s protocol.
as §4, §5, §6
TMT-Labeling. Desalted peptides were dried and resuspended in TMT-labeling buffer (200 mM EPPS pH 8.2, 20% acetonitrile). 10 μg of peptides per condition were subjected to TMT labeling with 1:2.5 peptide TMT ratio (w/w) for 1 h at room temperature. The labeling reaction was quenched by addition of hydroxylamine to a final concentration of 0.5% and incubation at room temperature for 15 minutes. Successful TMT labeling was verified by mixing equimolar ratios of peptides and subjecting the mix to single shot LC-MS/MS analysis. For high pH reversed phase fractionation on a Dionex analytical HPLC, 50 µg of pooled and purified TMT labelled samples were resuspended in 10 mM ammonium-bicarbonate (ABC), 5% acetonitrile, […]
particle size; Phenomenex) using a multistep gradient from 100% solvent A (5% acetonitrile, 10 mM ABC in water) to 60% solvent B (90% acetonitrile, 10 mM ABC in water) over 70 minutes. Eluting peptides were collected every 45 seconds into a total of 96 fractions, which were cross-concatenated into 24 fractions and dried in a vacuum concentrator and resuspended in 3% acetonitrile with 0.1% TFA for LC-MS analysis.
Mass spectrometry data acquisition. Tryptic peptides were analyzed on an Orbitrap Lumos coupled to an easy nLC 1200 (ThermoFisher Scientific) using a 35 cm long, 75 µm ID fused-

Chain of VHL (P40337 whole entry): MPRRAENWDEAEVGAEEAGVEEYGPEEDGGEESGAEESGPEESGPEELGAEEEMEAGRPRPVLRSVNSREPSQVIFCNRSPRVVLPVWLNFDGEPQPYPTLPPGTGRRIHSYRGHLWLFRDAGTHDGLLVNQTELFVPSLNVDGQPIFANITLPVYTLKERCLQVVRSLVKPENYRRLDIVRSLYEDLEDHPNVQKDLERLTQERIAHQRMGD

Cc1ncsc1-c1ccc(CNC(=O)[C@@H]2C[C@@H](O)CN2C(=O)[C@@H](NCCOCCOCCOCCOCCC(=O)N2CCN(c3ccc(Nc4ncc(Cl)c(Nc5ccccc5C(N)=O)n4)cc3)CC2)C(C)(C)C)cc1 [6-c]
kinase degradation ([1]; MCF-7 cells, 1 μM, 6 h): did not result in significant degradation of any kinase | log2FC (compound/DMSO) ([1]; protein NBPF19;NBPF15;NBPF8;NBPF10;NBPF26;NBPF14): -0.692 | log2FC (compound/DMSO) ([1]; protein NUDT4): -0.0761 | P.Value (compound/DMSO) [2]: 0.867 | log2FC (compound/DMSO) [2]: -0.01736 | VHL binding [3]: did not bind strongly to VHL | IC50 [4]: 8.5 ± 0.8 µM | log2FC (compound/DMSO) ([5]; protein NUDT4): 0.05309 | log2FC (compound/DMSO) ([5]; protein PIGBOS1): -0.1563 | log2FC (compound/DMSO) ([5]; protein TRAV8-2): -0.1064 | log2FC (compound/DMSO) ([5]; protein TRBV12-3;TRBV12-4): -0.03811
